Literature values, collected in patent US10925864B2, “Stable liquid injectable solution of midazolam and pentazocine” (NEON LABORATORIES LIMITED, priority 2015, dated 2021).
Counter-ions that a name gives are not always drawn. Like-named read-outs stand apart in the source and are kept apart here.

What was measured:
[1] = water / aqueous solutions
[2] = after IM administration in adults

**Q.** Which solubility [1] does the source give for `Cc1ncc2n1-c1ccc(Cl)cc1C(c1ccccc1F)=NC2` [Midazolam] here?
**A.** insoluble in water

**Q.** And the “Onset time of sedative effects” value [2]?
**A.** 15 min

**Q.** Which solubility ([1]; hydrochloride) does the source give for `Cc1ncc2n1-c1ccc(Cl)cc1C(c1ccccc1F)=NC2` [hydrochloride salt of midazolam, Midazolam hydrochloride] here?
**A.** soluble in aqueous solutions
